Target: Canalicular multispecific organic anion transporter 1/Solute carrier organic anion transporter family member 1B1 (Homo sapiens, UniProt Q92887+Q9Y6L6)
Assay: TP_TRANSPORTER: Transepithelial Transport (basal to apical) in OATP1B1/MRP2 double transfected LLC-PK1 cell
Format: functional, cell-based
Details: pig

SMILES | Activity
C[C@]12CC[C@H](OS(=O)(=O)O)CC1=CC[C@@H]1[C@@H]2CC[C@]2(C)C(=O)CC[C@@H]12 [PRASTERONE SULFURIC ACID] | substrate [(+)]
C[C@]12CC[C@@H]3c4ccc(O)cc4CC[C@H]3[C@@H]1CC[C@@H]2O[C@@H]1O[C@H](C(=O)O)[C@@H](O)[C@H](O)[C@H]1O [ESTRADIOL 17B GLUCURONIDE] | substrate [(+)]
C[C@]12CC[C@@H]3c4ccc(OS(=O)(=O)O)cc4CC[C@H]3[C@@H]1CCC2=O [ESTRONE SULFURIC ACID] | substrate [(+)]
